Measured values taken from ChEMBL document CHEMBL4811228, “Design, Synthesis, and Activity Evaluation of Novel Acyclic Nucleosides as Potential Anticancer Agents In Vitro and In Vivo” (J Med Chem, 2021).
The source made the active and inactive calls. No cut-off for these calls is given here.

Assays:
[1] = tested on: SW480; assay: Antiproliferative activity against human SW480 cells assessed as reduction in cell viability incubated for 48 hrs by MTT assay; assay type: functional, cell-based; details: SW480, 48 h
[2] = tested on: SW480; assay: Antitumor activity against human SW480 cells xenografted in BALB/c mouse assessed as reduction in tumor necrosis at 25 to 50 mg/kg, ip administered every 2 days for 12 days by hematoxyin-eosin staining based analysis; assay type: functional, organism-based; details: dose 25-50 mg/kg, time 12.0 day
[3] = tested on: SW480; assay: Induction of apoptosis in human SW480 cells assessed as early apoptotic cells at 8 uM incubated for 48 hrs by Annexin V-FITC/PI staining based flow cytometry (reference value: 1.87%); assay type: functional
[4] = tested on: SW480; assay: Induction of apoptosis in human SW480 cells assessed as late apoptotic cells at 2 uM incubated for 48 hrs by Annexin V-FITC/PI staining based flow cytometry (reference value: 4.67%); assay type: functional
[5] = Acute toxicity in BALB/c mouse assessed as animal survival at 250 mg/kg, ip administered per 4 hrs for 4 times and measured everyday for 14 days (reference value: 100%); assay type: organism-based; details: in vivo, time 14 day
[6] = tested on: SW480; assay: Induction of apoptosis in human SW480 cells assessed as necrotic cells at 8 uM incubated for 48 hrs by Annexin V-FITC/PI staining based flow cytometry (reference value: 2.9%); assay type: functional
[7] = tested on: SW480; assay: Induction of mitochondrial membrane potential loss in human SW480 cells assessed as cells with low MMP emitting green fluorescence at 8 uM incubated for 24 hrs by JC-1 staining based flow cytometry (reference value: 17.96%); assay type: functional
[8] = tested on: SW480; assay: Induction of apoptosis in human SW480 cells assessed as increase in Bax protein expression at 2 to 16 uM incubated for 48 hrs by western blot analysis; assay type: functional, cell-based; details: dose 2-16 µM
[9] = tested on: HCT-116; assay: Induction of apoptosis in human HCT-116 cells at 32 uM incubated for 48 hrs by Annexin V-FITC/PI staining based flow cytometry (reference value: 12%); assay type: functional
[10] = Half life in mouse liver microsomes at 0.1 uM preincubated for 10 mins followed by NADPH addition and measured up to 60 mins by LC-MS/MS analysis; assay type: ADME, Microsome; details: time 70 min
[11] = Acute toxicity in BALB/c mouse assessed as animal survival at 100 mg/kg, ip administered per 4 hrs for 4 times and measured everyday for 14 days (Rb =100%); assay type: organism-based; details: in vivo, time 14 day
[12] = Acute toxicity in BALB/c mouse assessed as animal survival at 150 mg/kg, ip administered per 4 hrs for 4 times and measured everyday for 14 days (Rb =100%); assay type: organism-based; details: in vivo, time 14 day
[13] = tested on: SW480; assay: Induction of apoptosis in human SW480 cells assessed as early apoptotic cells at 32 uM incubated for 48 hrs by Annexin V-FITC/PI staining based flow cytometry (reference value: 1.87%); assay type: functional
[14] = tested on: SW480; assay: Induction of apoptosis in human SW480 cells assessed as necrotic cells at 4 uM incubated for 48 hrs by Annexin V-FITC/PI staining based flow cytometry (reference value: 2.9%); assay type: functional
[15] = tested on: SW480; assay: Induction of apoptosis in human SW480 cells at 4 to 8 uM pretreated with pan-caspase inhibitor, Q-VD-OPh followed by incubation with compound for 48 hrs by Annexin V-FITC/PI staining based flow cytometry; assay type: functional, cell-based; details: dose 4-8 µM
[16] = tested on: HCT-116; assay: Induction of apoptosis in human HCT-116 cells incubated for 48 hrs by Annexin V-FITC/PI staining based flow cytometry; assay type: functional, cell-based; details: dose 2-32 µM
[17] = Half life in human liver microsomes at 0.1 uM preincubated for 10 mins followed by NADPH addition and measured up to 60 mins by LC-MS/MS analysis; assay type: ADME, Microsome; details: time 70 min
[18] = tested on: SW480; assay: Induction of apoptosis in human SW480 cells assessed as viable cells at 16 uM incubated for 48 hrs by Annexin V-FITC/PI staining based flow cytometry (reference value: 90.56%); assay type: functional; details: read-out: Activity
[19] = tested on: HCT-116; assay: Inhibition of colony formation in human HCT-116 cells at 2 to 8 uM incubated for 48 hrs followed by culture medium replenishment for every 72 hrs and measured after 14 days by crystal violet staining based analysis; assay type: functional, cell-based; details: dose 2-8 µM, time 14.0 day
[20] = tested on: HCT-116; assay: Induction of cell cycle arrest in human HCT-116 cells assessed as accumulation at G0/G1 phase at 16 uM incubated for 24 hrs by propidium iodide staining based flow cytometry; assay type: functional
[21] = Toxicity in BALB/c mouse xenografted with human SW480 cells assessed as decrease in body weight at 25 to 50 mg/kg, ip administered every 2 days for 12 days; assay type: organism-based; details: in vivo, 288 h, dose 25-50 mg/kg, time 12 day

CCCCCCCCCC(CCO)n1cnc2c(Cl)ncnc21 (racemic)
IC50 [1]: 1150 nM
Activity [2]: Active
Activity [3]: 11.03%
Activity [4]: 11.69%
survival at 336 h [5]: 20%
Activity [6]: 16.97%
Activity [7]: 36.6%
Activity [8]: Active
Activity [9]: 66%
half-life at 0.1 µM [10]: 1 min
survival at 336 h [11]: 100%
survival at 336 h [12]: 100%
Activity [13]: 55.55%
Activity [14]: 7.76%
Activity [15]: Active
Activity [16]: Dose-Dependent Effect
half-life at 0.1 µM [17]: 10.8 min
viability at 16 µM [18]: 44%
inhibition [19]: Active
Activity [20]: Active
Activity [21]: Non-Toxic
